According to patent US20260327240A1, “1,4-CINEOLE DERIVATIVE AND INTERMEDIATE THEREOF, HERBICIDE CONTAINING SAID DERIVATIVE AS ACTIVE INGREDIENT, METHOD FOR USING HERBICIDE, AND METHOD FOR PREPARING AGROCHEMICAL COMPOSITION” (HOKKO CHEMICAL INDUSTRY CO., LTD., priority 2023, published 2026):

Columns and labels:
Assay type in all cases: in vivo
[1] = tested on: Echinochloa crus-galli; assay: Test Example 3: herbicidal effect test by soil application in upland field; conditions: Echinochloa crus-galli, 1 day after sowing, 120 g per 10 ares, 14 days after application, read-out: weed inhibition rate
In short: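 Twenty seeds per weed species were mixed into the top 1 cm of alluvial loam in pots. One day after sowing, an emulsifiable concentrate diluted in water was sprayed on the soil surface at 120 g active ingredient per 10 ares.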

[2] = tested on: Digitaria ciliaris; assay: Test Example 4: herbicidal effect test by stem and leaf treatment in upland field; conditions: Digitaria ciliaris, 7 days after sowing, 120 g per 10 ares, 14 days after application, read-out: weed inhibition rate
In short: (§1)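 Weeds sown in alluvial loam and sprayed 7 days after sowing with a water-diluted emulsifiable concentrate at 100 L per 10 ares, equivalent to 120 g active ingredient per 10 ares.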

[3] = tested on: Echinochloa crus-galli; assay: as above; conditions: Echinochloa crus-galli, 7 days after sowing, 120 g per 10 ares, 14 days after application, read-out: weed inhibition rate
In short: as §1

[4] = tested on: Echinochloa crus-galli var. formosensis; assay: Test Example 5: herbicidal effect test by soil application in paddy rice; conditions: Echinochloa crus-galli, 336 h, 7.5 g per 10 ares, 14 days after application, read-out: weed inhibition rate
Protocol: Herbicidal Effect Test by Soil Application in Paddy Rice
Wagner pots with an area of […] were filled with paddy soil, followed by addition of water and incorporation of chemical fertilizer (N:P:K=16:16:16), after which puddling was performed. After that, seeds of Echinochloa crus-galli var. formosensis, broad-leaved weeds (Lindemia pyxidaria, and Monochoria vaginalis), and Scirpus juncoides were sown at a depth of 0 cm to 1 cm, 30 seeds each. Immediately after sowing, the pots were flooded and a water depth of approximately 3 cm was maintained. Subsequent management was conducted in a glass greenhouse. Immediately thereafter, an emulsifiable concentrate prepared according to Formulation Example 5 using the compound shown below was diluted with water, and a specified amount of the diluted solution was applied by dropper. The amount of the active ingredient to be applied was equivalent to 7.5 g per 10 ares.
The present test was conducted in duplicate for each chemical concentration group, and the herbicidal effect was evaluated 14 days after chemical application using the same criteria as in Test Example 1.

CCOC(C)O[C@H]1C[C@]2(C)O[C@@]1(C(C)C)C[C@H]2OCc1ccccc1F (stereo partly drawn) [1-213, (1R,2S,4S,5R)-2-(1-ethoxyethoxy)-5-((2-fluorobenzyl)oxy)-1-isopropyl-4-methyl-7-oxabicyclo[2.2.1]heptane]
≥ 80%: inhibition at 1200 g/ha [1] | inhibition at 1200 g/ha [2] | inhibition at 1200 g/ha [3] | inhibition at 75 g/ha [4]
